According to patent US8742106B2 (Novartis AG, priority 2009, dated 2014):

Legend:
human orexin 1 receptors [1] = target: T1, human orexin 1 receptors (Homo sapiens (Human), UniProt O43613); assay: Radioligand Binding Assay I ([125I]orexin A competition, cell membranes); conditions: read-out: binding I hOx1R Kd
Experimental: (§1) Radioligand Binding Assay I
(§2) For crude cell membrane preparations, cells (CHO, Chinese hamster ovary or HEK, human embryonic kidney) expressing human orexin 1 or human orexin 2 receptors, were washed with HEPES (10 mM, pH 7.5), scraped off the culture plates with the same buffer, and centrifuged at 4° C. for 5 min at 2500×g. The cell pellet was either stored at −80° C. or used directly. Before the experiments, cell membranes were re-suspended in binding assay buffer (10 mM HEPES, 0.5% (w/v) bovine serum albumin, pH 7.5) by homogenisation with a Polytron homogeniser at 50 Hz for 20 s. Cell membranes were also used as made available by commercial providers.
(§3) In initial saturation experiments (to calculate Bmax), cell homogenates (150 μl) were incubated with 25-300 pM of the radioligand ([^125I]orexin A, 50 μl), 8 concentrations in triplicates in the presence or absence Orexin A (1 μM, 50 μl) to define non specific binding. Bound radioactivity was measured, and data were analysed with the program XLFIT or Graphpad Prism. Protein concentration was determined according to the Bradford/BioRad Protein Assay Kit.
(§4) In competition experiments, cell homogenates (150 μl) were incubated in assay buffer (10 mM HEPES, pH 7.5, 0.5% (w/v) bovine serum albumin, 5 mM MgCl2, 1 mM CaCl2, and tween 0.05%) for 1 h at room temperature with about 100 pM of the radioligand ([^125I]orexin A, 2100 Ci/mmole, 50 μl), and with various concentrations of compounds of the invention (50 μl) in triplicates; non-specific binding was determined in the presence of Orexin A (1 μM). Reactions were terminated by vacuum filtration, 3 washes of ice cold wash buffer (Tris-HCl pH 7.4/10 mM, with NaCl 154 mM).

human orexin 2 receptors [2] = target: T2, human orexin 2 receptors (Homo sapiens (Human), UniProt O43614); assay: as above; conditions: read-out: binding I hOx2R Kd
Experimental: as §1, §2, §3, §4

human orexin 1 receptors [3] = target: T1, human orexin 1 receptors; assay: Calcium Accumulation in Cells (FLIPR), antagonism of orexin A; assay type: cell-based; conditions: antagonism of orexin A, Cheng-Prusoff corrected; read-out: FLIPR hOx1R Ki
human orexin 2 receptors [4] = target: T2, human orexin 2 receptors; assay: as above; assay type: cell-based; conditions: antagonism of orexin A, Cheng-Prusoff corrected; read-out: FLIPR hOx2R Ki
In short: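 Cells expressing human orexin 2 receptor, loaded with Fluo4-AM (2 μM) plus probenecid (0.1 mM) for 1 h, then washed. Antagonism read as inhibition of the orexin A calcium fluorescence signal (FLIPR).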

T1 sequence (O43613 whole entry): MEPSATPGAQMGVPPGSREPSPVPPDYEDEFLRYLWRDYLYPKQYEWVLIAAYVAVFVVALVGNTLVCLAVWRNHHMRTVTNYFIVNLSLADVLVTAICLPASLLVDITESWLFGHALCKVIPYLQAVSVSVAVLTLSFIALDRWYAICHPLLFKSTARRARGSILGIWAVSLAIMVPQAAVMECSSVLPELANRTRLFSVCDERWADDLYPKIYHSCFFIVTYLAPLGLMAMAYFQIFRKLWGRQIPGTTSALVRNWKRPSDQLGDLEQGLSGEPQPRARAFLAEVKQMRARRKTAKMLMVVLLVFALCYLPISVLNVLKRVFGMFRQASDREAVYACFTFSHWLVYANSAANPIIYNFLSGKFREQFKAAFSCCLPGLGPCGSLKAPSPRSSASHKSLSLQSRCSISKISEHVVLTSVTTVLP
T2 sequence (O43614 whole entry): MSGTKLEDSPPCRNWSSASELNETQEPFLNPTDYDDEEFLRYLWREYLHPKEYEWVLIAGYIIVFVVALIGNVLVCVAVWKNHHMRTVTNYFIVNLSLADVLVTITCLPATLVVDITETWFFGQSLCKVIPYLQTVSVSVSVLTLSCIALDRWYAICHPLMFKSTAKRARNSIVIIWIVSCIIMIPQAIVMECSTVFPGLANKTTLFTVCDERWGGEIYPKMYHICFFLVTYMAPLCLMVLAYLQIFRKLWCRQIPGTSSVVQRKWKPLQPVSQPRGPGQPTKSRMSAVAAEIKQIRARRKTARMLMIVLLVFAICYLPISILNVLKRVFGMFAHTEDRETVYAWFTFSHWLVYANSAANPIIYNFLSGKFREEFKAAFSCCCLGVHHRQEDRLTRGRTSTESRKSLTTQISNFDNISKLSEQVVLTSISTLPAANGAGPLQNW

Cn1nc(-c2ccccc2)c2c(C(F)(F)F)cc(OCC(=O)N[C@H]3CCc4ccccc43)nc21 [Example 1.3, (S)—N-(2,3-dihydro-1H-inden-1-yl)-2-(1-methyl-3-phenyl-4-(trifluoromethyl)-1H-pyrazolo[3,4-b]pyridin-6-yloxy)acetamide]
Kd (human orexin 1 receptors [1]): 348 nM | Kd (human orexin 2 receptors [2]): 128 nM | Ki (human orexin 1 receptors [3]): 211 nM | Ki (human orexin 2 receptors [4]): 69 nM | melting point: 203 to 205.2 °C

Cc1n[nH]c(C)c1[C@H](C)NC(=O)COc1cc(C(F)(F)F)c2c(-c3ccccc3)nn(C)c2n1 [Example 1.6, (S)—N-(1-(3,5-dimethyl-1H-pyrazol-4-yl)ethyl)-2-(1-methyl-3-phenyl-4-(trifluoromethyl)-1H-pyrazolo[3,4-b]pyridin-6-yloxy)acetamide]
melting point: 145 to 147 °C

COc1ccc(-c2nn(C)c3nc(OCC(=O)N[C@@H](C)c4ccccc4)cc(C(F)(F)F)c23)cc1 [Example 1.20]
Kd (human orexin 1 receptors [1]): 299 nM | Kd (human orexin 2 receptors [2]): 187 nM | Ki (human orexin 1 receptors [3]): 378 nM | Ki (human orexin 2 receptors [4]): 76 nM

C[C@H](NC(=O)COc1cc(C(F)(F)F)c2c(-c3cccc(F)c3)nn(C)c2n1)c1ccccc1 [Example 1.22, (S)-2-(3-(3-fluorophenyl)-1-methyl-4-(trifluoromethyl)-1H-pyrazolo[3,4-b]pyridin-6-yloxy)-N-(1-phenylethyl)acetamide]
Kd (human orexin 1 receptors [1]): 88 nM | Kd (human orexin 2 receptors [2]): 94 nM | Ki (human orexin 1 receptors [3]): 107 nM | Ki (human orexin 2 receptors [4]): 50 nM

C[C@H](NC(=O)COc1cc(C(F)(F)F)c2c(-c3ccc(F)cc3)nn(C)c2n1)c1ccccc1 [Example 1.23, (S)-2-(3-(4-fluorophenyl)-1-methyl-4-(trifluoromethyl)-1H-pyrazolo[3,4-b]pyridin-6-yloxy)-N-(1-phenylethyl)acetamide]
Kd (human orexin 1 receptors [1]): 131 nM | Kd (human orexin 2 receptors [2]): 278 nM | Ki (human orexin 1 receptors [3]): 128 nM | Ki (human orexin 2 receptors [4]): 136 nM

Cc1cccc(-c2nn(C)c3nc(OCC(=O)N[C@@H](C)c4ccccc4)cc(C(F)(F)F)c23)c1 [Example 1.24, (S)-2-(1-methyl-3-m-tolyl-4-(trifluoromethyl)-1H-pyrazolo[3,4-b]pyridin-6-yloxy)-N-(1-phenylethyl)acetamide]
Kd (human orexin 1 receptors [1]): 48 nM | Kd (human orexin 2 receptors [2]): 153 nM | Ki (human orexin 1 receptors [3]): 54 nM | Ki (human orexin 2 receptors [4]): 87 nM

Cc1ccc(CNC(=O)COc2cc(C(F)(F)F)c3c(-c4ccccc4)nn(C)c3n2)cc1 [Example 1.32, 2-(1-methyl-3-phenyl-4-(trifluoromethyl)-1H-pyrazolo[3,4-b]pyridin-6-yloxy)-N-(4-methylbenzyl)acetamide]
Kd (human orexin 1 receptors [1]): 2600 nM | Kd (human orexin 2 receptors [2]): 1380 nM | Ki (human orexin 1 receptors [3]): 851 nM | Ki (human orexin 2 receptors [4]): 115 nM

CCn1nccc1C(C)NC(=O)COc1cc(C(F)(F)F)c2c(-c3ccccc3)nn(C)c2n1 (stereo not shown) [Example 1.39, N-(1-(1-ethyl-1H-pyrazol-5-yl)ethyl)-2-(1-methyl-3-phenyl-4-(trifluoromethyl)-1H-pyrazolo[3,4-b]pyridin-6-yloxy)acetamide]
Kd (human orexin 1 receptors [1]): 330 nM | Kd (human orexin 2 receptors [2]): 1130 nM | Ki (human orexin 1 receptors [3]): 222 nM | Ki (human orexin 2 receptors [4]): 353 nM

COc1ccc(CNC(=O)COc2cc(C(F)(F)F)c3c(-c4ccccc4)nn(C)c3n2)cc1 [Example 1.41, N-(4-methoxybenzyl)-2-(1-methyl-3-phenyl-4-(trifluoromethyl)-1H-pyrazolo[3,4-b]pyridin-6-yloxy)acetamide]
Kd (human orexin 1 receptors [1]): 1240 nM | Kd (human orexin 2 receptors [2]): 410 nM | Ki (human orexin 1 receptors [3]): 800 nM | Ki (human orexin 2 receptors [4]): 83 nM

COc1ccc(C(C)NC(=O)COc2cc(C(F)(F)F)c3c(-c4ccccc4)nn(C)c3n2)cc1 (stereo not shown) [Example 1.45, N-(1-(4-methoxyphenyl)ethyl)-2-(1-methyl-3-phenyl-4-(trifluoromethyl)-1H-pyrazolo[3,4-b]pyridin-6-yloxy)acetamide]
Kd (human orexin 1 receptors [1]): 32 nM | Kd (human orexin 2 receptors [2]): 7 nM | Ki (human orexin 1 receptors [3]): 29 nM | Ki (human orexin 2 receptors [4]): 2 nM

COc1cccc(C(C)NC(=O)COc2cc(C(F)(F)F)c3c(-c4ccccc4)nn(C)c3n2)c1 (stereo not shown) [Example 1.46, N-(1-(3-methoxyphenyl)ethyl)-2-(1-methyl-3-phenyl-4-(trifluoromethyl)-1H-pyrazolo[3,4-b]pyridin-6-yloxy)acetamide]
Kd (human orexin 1 receptors [1]): 42 nM | Kd (human orexin 2 receptors [2]): 101 nM | Ki (human orexin 1 receptors [3]): 20 nM | Ki (human orexin 2 receptors [4]): 26 nM

Cc1ccc(-c2nn(C)c3nc(OCC(=O)N[C@@H](C)c4ccccc4)cc(C(F)(F)F)c23)cc1 [Example 1.48, (S)-2-(1-methyl-3-p-tolyl-4-(trifluoromethyl)-1H-pyrazolo[3,4-b]pyridin-6-yloxy)-N-(1-phenylethyl)acetamide]
Kd (human orexin 1 receptors [1]): 490 nM | Kd (human orexin 2 receptors [2]): 212 nM | Ki (human orexin 1 receptors [3]): 178 nM | Ki (human orexin 2 receptors [4]): 75 nM

COc1ccccc1-c1nn(C)c2nc(OCC(=O)N[C@@H](C)c3ccccc3)cc(C(F)(F)F)c12 [Example 1.49, (S)-2-(3-(2-methoxyphenyl)-1-methyl-4-(trifluoromethyl)-1H-pyrazolo[3,4-b]pyridin-6-yloxy)-N-(1-phenylethyl)acetamide]
Kd (human orexin 1 receptors [1]): 6 nM | Kd (human orexin 2 receptors [2]): 715 nM | Ki (human orexin 1 receptors [3]): 15 nM | Ki (human orexin 2 receptors [4]): 243 nM

C[C@H](NC(=O)COc1cc(C(F)(F)F)c2c(-c3cccc(Br)c3)nn(C)c2n1)c1ccccc1 [Example 1.58, (S)-2-(3-(3-bromophenyl)-1-methyl-4-(trifluoromethyl)-1H-pyrazolo[3,4-b]pyridin-6-yloxy)-N-(1-phenylethyl)acetamide]
Kd (human orexin 1 receptors [1]): 170 nM | Kd (human orexin 2 receptors [2]): 436 nM | Ki (human orexin 1 receptors [3]): 77 nM | Ki (human orexin 2 receptors [4]): 201 nM

Cn1nc(-c2ccccc2F)c2c(C(F)(F)F)cc(OCC(=O)N[C@H]3CCc4ccccc43)nc21 [Example 1.60, (S)-N-(2,3-dihydro-1H-inden-1-yl)-2-(3-(2-fluorophenyl)-1-methyl-4-(trifluoromethyl)-1H-pyrazolo[3,4-b]pyridin-6-yloxy)acetamide]
Kd (human orexin 1 receptors [1]): 418 nM | Kd (human orexin 2 receptors [2]): 144 nM | Ki (human orexin 1 receptors [3]): 236 nM | Ki (human orexin 2 receptors [4]): 36 nM

Cn1nc(-c2cccc(F)c2)c2c(C(F)(F)F)cc(OCC(=O)N[C@H]3CCc4ccccc43)nc21 [Example 1.61, (S)-N-(2,3-dihydro-1H-inden-1-yl)-2-(3-(3-fluorophenyl)-1-methyl-4-(trifluoromethyl)-1H-pyrazolo[3,4-b]pyridin-6-yloxy)acetamide]
Kd (human orexin 1 receptors [1]): 204 nM | Kd (human orexin 2 receptors [2]): 89 nM | Ki (human orexin 1 receptors [3]): 117 nM | Ki (human orexin 2 receptors [4]): 33 nM

COc1ccc(C(C)NC(=O)COc2cc(C(F)(F)F)c3c(-c4ccccc4)nn(C)c3n2)cn1 (stereo not shown) [Example 1.67, N-(1-(6-methoxypyridin-3-yl)ethyl)-2-(1-methyl-3-phenyl-4-(trifluoromethyl)-1H-pyrazolo[3,4-b]pyridin-6-yloxy)acetamide]
Kd (human orexin 1 receptors [1]): 46 nM | Kd (human orexin 2 receptors [2]): 20 nM | Ki (human orexin 1 receptors [3]): 27 nM | Ki (human orexin 2 receptors [4]): 2 nM

Cc1nn(C)c(C)c1C(C)NC(=O)COc1cc(C(F)(F)F)c2c(-c3ccccc3)nn(C)c2n1 (stereo not shown) [Example 1.70, 2-(1-methyl-3-phenyl-4-(trifluoromethyl)-1H-pyrazolo[3,4-b]pyridin-6-yloxy)-N-(1-(1,3,5-trimethyl-1H-pyrazol-4-yl)ethyl)acetamide]
Kd (human orexin 1 receptors [1]): 26 nM | Kd (human orexin 2 receptors [2]): 50 nM | Ki (human orexin 1 receptors [3]): 8 nM | Ki (human orexin 2 receptors [4]): 10 nM

COc1ccc([C@H](C)NC(=O)COc2cc(C)c3c(C4CC4)nn(C)c3n2)cc1 [Example 1.71, (S)-2-(3-cyclopropyl-1,4-dimethyl-1H-pyrazolo[3,4-b]pyridin-6-yloxy)-N-(1-(4-methoxyphenyl)ethyl)acetamide]
Kd (human orexin 1 receptors [1]): 105 nM | Kd (human orexin 2 receptors [2]): 63 nM | Ki (human orexin 1 receptors [3]): 145 nM | Ki (human orexin 2 receptors [4]): 88 nM

Cc1ccc(C(C)NC(=O)COc2cc(C(F)(F)F)c3c(-c4ccccc4)nn(C)c3n2)cn1 (stereo not shown) [Example 1.77, 2-(1-methyl-3-phenyl-4-(trifluoromethyl)-1H-pyrazolo[3,4-b]pyridin-6-yloxy)-N-(1-(6-methylpyridin-3-yl)ethyl)acetamide]
Kd (human orexin 1 receptors [1]): 161 nM | Kd (human orexin 2 receptors [2]): 87 nM | Ki (human orexin 1 receptors [3]): 74 nM | Ki (human orexin 2 receptors [4]): 21 nM

C[C@H](NC(=O)COc1ccc2c(-c3ccccc3)nn(C)c2n1)c1ccccc1 [Example 2.1, (S)-2-(1-methyl-3-phenyl-1H-pyrazolo[3,4-b]pyridin-6-yloxy)-N-(1-phenylethyl)acetamide]
Ki (human orexin 1 receptors [3]): 492 nM | Ki (human orexin 2 receptors [4]): 865 nM | melting point: 55 to 56 °C

C[C@H](NC(=O)COc1cc(C(F)(F)F)c2c(-c3ccccc3)cn(C)c2n1)c1ccccc1 [Example 6.77, (S)-2-(1-methyl-3-phenyl-4-(trifluoromethyl)-1H-pyrrolo[2,3-b]pyridin-6-yloxy)-N-(1-phenylethyl)acetamide]
Kd (human orexin 1 receptors [1]): 501 nM | Kd (human orexin 2 receptors [2]): 240 nM | Ki (human orexin 1 receptors [3]): 148 nM | Ki (human orexin 2 receptors [4]): 59 nM
